Converted amounts (≈) assume the structure as drawn. “And” between values parts separate entries of the source, which are not always exact repeats. Equal values may be shown once. Read-outs that look alike come from different tables or passages of the source.
Experiments:
Experiment in all cases: in vitro antibacterial MIC, agar plate dilution
Assay type in all cases: cell-based
[1] = system: Morganella morganii MOR 84-45; conditions: 35° C.
How it was run: (§1)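 Agar plate dilution on Mueller-Hinton agar, inoculum approximately 10^4 CFU per organism applied with a Steers replicator. MIC (mcg/ml) is the lowest compound concentration inhibiting visible growth after 18 hours at 35° C.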

[2] = system: Streptococcus faecalis UCI 85-30; conditions: 35° C.
How it was run: as §1

[3] = system: Streptococcus faecalis CMC 83-120; conditions: 35° C.
How it was run: as §1

[4] = system: Serratia marcescens MOR 84-41; conditions: 35° C.
How it was run: as §1

[5] = system: Serratia marcescens CMC 83-74; conditions: 35° C.
How it was run: as §1

[6] = system: Providencia stuarti CMC 83-3; conditions: 35° C.
How it was run: as §1

[7] = system: Enterobacter cloacae MOR 84-30; conditions: 35° C.
How it was run: as §1

[8] = system: Enterobacter cloacae K 84-10; conditions: 35° C.
How it was run: as §1

[9] = system: Staphylococcus aureus CMC 83-131; conditions: 35° C.
How it was run: as §1

[10] = system: Streptococcus faecalis VGH 84-69; conditions: 35° C.
How it was run: as §1

[11] = system: Klebsiella pneumoniae CMC 84-31; conditions: 35° C.
How it was run: as §1

[12] = system: Enterobacter cloacae VGH 84-39; conditions: 35° C.
How it was run: as §1

[13] = system: Klebsiella pneumoniae IO 83-5; conditions: 35° C.
How it was run: as §1

[14] = system: Proteus rettgeri IO 83-21; conditions: 35° C.
How it was run: as §1

[15] = system: Pseudomonas aeruginosa CMC 83-20; conditions: 35° C.
How it was run: as §1

[16] = system: Morganella morganii VHG 84-12; conditions: Morganella morganii VHG 84-12 (VGH 84-12 for Example 131), 35° C.
How it was run: as §1

[17] = system: Morganella morganii CMC 84-38; conditions: 35° C.
How it was run: as §1

[18] = system: Staphylococcus aureus K 82-26; conditions: 35° C.
How it was run: as §1

[19] = system: Escherichia coli VGH 84-19; conditions: 35° C.
How it was run: as §1

[20] = system: Escherichia coli ATCC 25922; conditions: 35° C.
How it was run: as §1

[21] = system: Klebsiella pneumoniae MOR 84-24; conditions: 35° C.
How it was run: as §1

Citrobacter div. K 82-24 = conditions: 35° C.
How it was run: as §1

[22] = system: Staphylococcus aureus ATTC 29213; conditions: Staphylococcus aureus, ATTC29213, 18 h, 35° C., read-out: MIC
How it was run: as §1

[23] = system: Pseudomonas aeruginosa VGH 84-3; conditions: 35° C.
How it was run: as §1

[24] = system: Escherichia coli CMC 84-50; conditions: 35° C.
How it was run: as §1

[25] = system: Escherichia coli MOR 84-20; conditions: 35° C.
How it was run: as §1

[26] = system: Staphylococcus aureus VGH 84-47; conditions: 35° C.
How it was run: as §1

[27] = system: Pseudomonas aeruginosa K 84-16; conditions: 35° C.
How it was run: as §1

[28] = system: Streptococcus faecalis VGH 84-65; conditions: 18 hours, 35° C.
How it was run: as §1

[29] = system: Serratia marcescens VGH 84-30; conditions: Serratia marcescens, VGH8430, 18 h, 35° C., read-out: MIC
How it was run: as §1

[30] = system: Staphylococcus aureus Smith; conditions: 18 hours, 35° C.
How it was run: as §1

[31] = system: Morganella morganii CMC 84-37; conditions: 18 hours, 35° C.
How it was run: as §1

[32] = system: Pseudomonas aeruginosa VGH 84-4; conditions: 18 hours, 35° C.
How it was run: as §1

[33] = system: Proteus rettgeri CMC 84-41; conditions: Providencia rettgeri, CMC8441, 18 h, 35° C., read-out: MIC
How it was run: as §1

[34] = system: Serratia marcescens K 84-18; conditions: 18 hours, 35° C.
How it was run: as §1

[35] = system: Escherichia coli CMC 84-11; conditions: Escherichia coli, CMC8411, 18 h, 35° C., read-out: MIC
How it was run: as §1

[36] = system: Pseudomonas aeruginosa LL-1244; conditions: 18 hours, 35° C.
How it was run: as §1

[37] = system: Streptococcus faecalis UCI 85-19; conditions: 18 hours, 35° C.
How it was run: as §1

[38] = system: Staphylococcus aureus VGH 84-45; conditions: 18 hours, 35° C.
How it was run: as §1

Escherichia coli LL 311 = conditions: Escherichia coli, LL311, 18 h, 35° C., read-out: MIC
How it was run: as §1

**Q.** What does the source list for `O=C(O)c1cn(C2CC2)c2cc(N3CCNC(c4cc[nH]c4)C3)c(F)cc2c1=O` (stereo not shown) [Example 119]?
**A.** MIC ([1]; Morganella morganii, MOR8445, 18 h, read-out: MIC): 0.03 µg/mL (≈ 0.0757 µM); MIC ([2]; Enterococcus faecalis, UCI8530, 18 h, read-out: MIC): 1 µg/mL (≈ 2.52 µM); MIC ([3]; Enterococcus faecalis, CMC83120, 18 h, read-out: MIC): 0.2 µg/mL (≈ 0.505 µM); MIC ([4]; Serratia marcescens, MOR8441, 18 h, read-out: MIC): 0.5 µg/mL (≈ 1.26 µM); MIC ([5]; Serratia marcescens, CMC8374, 18 h, read-out: MIC): 16 µg/mL (≈ 40.4 µM); MIC ([6]; Providencia, CMC833, 18 h, read-out: MIC): 4 µg/mL (≈ 10.1 µM); MIC ([7]; Enterobacter cloacae, MOR8430, 18 h, read-out: MIC): 0.5 µg/mL (≈ 1.26 µM); MIC ([8]; Enterobacter cloacae, K8410, 18 h, read-out: MIC): 0.3 µg/mL (≈ 0.757 µM); MIC ([9]; Staphylococcus aureus, CMC83131, 18 h, read-out: MIC): 0.25 µg/mL (≈ 0.631 µM); MIC ([10]; Enterococcus faecalis, VGH8469, 18 h, read-out: MIC): 0.5 µg/mL (≈ 1.26 µM); MIC ([11]; Klebsiella pneumoniae, CMC8431, 18 h, read-out: MIC): 0.06 µg/mL (≈ 0.151 µM); MIC ([12]; Enterobacter cloacae, VGH8439, 18 h, read-out: MIC): 0.06 µg/mL (≈ 0.151 µM); MIC ([13]; Klebsiella pneumoniae, IO835, 18 h, read-out: MIC): 0.12 µg/mL (≈ 0.303 µM); MIC ([14]; Providencia rettgeri, IO8321, 18 h, read-out: MIC): 0.12 µg/mL (≈ 0.303 µM); MIC ([15]; Pseudomonas aeruginosa, CMC8320, 18 h, read-out: MIC): 2 µg/mL (≈ 5.05 µM); MIC ([16]; Morganella morganii, VHG8412, 18 h, read-out: MIC): 0.5 µg/mL (≈ 1.26 µM); MIC ([17]; Morganella morganii, CMC8438, 18 h, read-out: MIC): 0.06 µg/mL (≈ 0.151 µM); MIC ([18]; Staphylococcus aureus, K8226, 18 h, read-out: MIC): 0.5 µg/mL (≈ 1.26 µM); MIC ([19]; Escherichia coli, VGH8419, 18 h, read-out: MIC): 0.015 µg/mL (≈ 0.0378 µM); MIC ([20]; Escherichia coli, ATCC25922, 18 h, read-out: MIC): 0.008 µg/mL (≈ 0.0202 µM); MIC ([21]; Klebsiella pneumoniae, MOR8424, 18 h, read-out: MIC): 0.12 µg/mL (≈ 0.303 µM); MIC (Citrobacter div. K 82-24; Citrobacter, DIV.K8224, 18 h, read-out: MIC): 0.03 µg/mL (≈ 0.0757 µM); MIC [22]: 0.12 µg/mL (≈ 0.303 µM); MIC ([23]; Pseudomonas aeruginosa, VGH843, 18 h, read-out: MIC): 8 µg/mL (≈ 20.2 µM); MIC ([24]; Escherichia coli, CMC8450, 18 h, read-out: MIC): 0.03 µg/mL (≈ 0.0757 µM); MIC ([25]; Escherichia coli, MOR8420, 18 h, read-out: MIC): 0.015 µg/mL (≈ 0.0378 µM); MIC ([26]; Staphylococcus aureus, VGH8447, 18 h, read-out: MIC): 0.12 µg/mL (≈ 0.303 µM); MIC ([27]; Pseudomonas aeruginosa, K8416, 18 h, read-out: MIC): 4 µg/mL (≈ 10.1 µM)

**Q.** Which results are given for `O=C(O)c1cn(C2CC2)c2cc(N3CCNC(C4CC4)C3)c(F)cc2c1=O` (stereo not shown) [Example 124, 1-Cyclopropyl-7-(3-cvclopropyl-1-piperazinyl)-6-fluoro-1,4-dihydro-4-oxo-3-quinolinecarboxvlic acid,]?
**A.** MIC [28]: 1 µg/mL (≈ 2.69 µM); MIC ([1]; 18 hours): 0.015 µg/mL (≈ 0.0404 µM); MIC ([2]; 18 hours): 2 µg/mL (≈ 5.38 µM); MIC ([3]; 18 hours): 1 µg/mL (≈ 2.69 µM); MIC ([4]; 18 hours): 0.12 µg/mL (≈ 0.323 µM); MIC [29]: 2 µg/mL (≈ 5.38 µM); MIC ([5]; 18 hours): 8 µg/mL (≈ 21.5 µM); MIC ([6]; 18 hours): 4 µg/mL (≈ 10.8 µM); MIC ([7]; 18 hours): 0.5 µg/mL (≈ 1.35 µM); MIC [30]: 0.06 µg/mL (≈ 0.162 µM); MIC ([8]; 18 hours): 0.015 µg/mL (≈ 0.0404 µM); MIC [31]: 0.06 µg/mL (≈ 0.162 µM); MIC ([9]; 18 hours): 0.5 µg/mL (≈ 1.35 µM); MIC ([10]; 18 hours): 1 µg/mL (≈ 2.69 µM); MIC [32]: 2 µg/mL (≈ 5.38 µM); MIC [33]: 0.06 µg/mL (≈ 0.162 µM); MIC ([11]; 18 hours): 0.03 µg/mL (≈ 0.0808 µM); MIC ([12]; 18 hours): 0.03 µg/mL (≈ 0.0808 µM); MIC ([13]; 18 hours): 0.06 µg/mL (≈ 0.162 µM); MIC ([14]; 18 hours): 0.12 µg/mL (≈ 0.323 µM); MIC ([15]; 18 hours): 4 µg/mL (≈ 10.8 µM); MIC ([16]; 18 hours): 0.12 µg/mL (≈ 0.323 µM); MIC ([17]; 18 hours): 0.03 µg/mL (≈ 0.0808 µM); MIC [34]: 0.12 µg/mL (≈ 0.323 µM); MIC ([18]; 18 hours): 1 µg/mL (≈ 2.69 µM); MIC ([19]; 18 hours): 0.015 µg/mL (≈ 0.0404 µM); MIC [35]: 0.03 µg/mL (≈ 0.0808 µM); MIC [36]: 4 µg/mL (≈ 10.8 µM); MIC ([20]; 18 hours): < 0.015 µg/mL and 0.008 µg/mL; MIC ([21]; 18 hours): 0.06 µg/mL (≈ 0.162 µM); MIC (Citrobacter div. K 82-24; 18 hours): 0.03 µg/mL (≈ 0.0808 µM); MIC [37]: 2 µg/mL (≈ 5.38 µM); MIC ([23]; 18 hours): 8 µg/mL (≈ 21.5 µM); MIC [38]: 0.06 µg/mL (≈ 0.162 µM); MIC ([24]; 18 hours): 0.03 µg/mL (≈ 0.0808 µM); MIC ([25]; 18 hours): 0.015 µg/mL (≈ 0.0404 µM); MIC ([26]; 18 hours): 0.25 µg/mL (≈ 0.673 µM); MIC ([27]; 18 hours): 4 µg/mL (≈ 10.8 µM); MIC (Escherichia coli LL 311): 0.03 µg/mL (≈ 0.0808 µM)

— patent US5210193A, “Piperazine derivatives” (American Cyanamid Company, priority 1990, dated 1993)
